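Results reflect a 48-hour exposure of cells in 96-well plates to compound at five concentrations. Abbreviation: GI50, concentration required for 50% inhibition of growth.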 Calls of active or inactive are those of the source. Rule as the data show it: active = GI50 up to about 1.1 µM and inactive = higher.
Tests used:
Assay in all cases: inhibition of tumour cell growth, NCI panel, 48 h
SF-268 = test system: SF-268
CAKI-1 = test system: CAKI-1
SN12C = test system: SN12C
SK-MEL-5 = test system: SK-MEL-5
HL-60 = test system: HL-60
UO-31 = test system: UO-31
COLO 205 = test system: COLO 205
HCT-15 = test system: HCT-15
SK-MEL-2 = test system: SK-MEL-2
SW-620 = test system: SW-620
SR = test system: SR
Malme-3M = test system: Malme-3M
A498 = test system: A498
ACHN = test system: ACHN
SK-MEL-28 = test system: SK-MEL-28
M14 = test system: M14
MCF7 = test system: MCF7
SNB-19 = test system: SNB-19
HT-29 = test system: HT-29

SMILES | GI50 (SF-268) | GI50 (CAKI-1) | GI50 (SN12C) | GI50 (SK-MEL-5) | GI50 (HL-60) | GI50 (UO-31) | GI50 (COLO 205) | GI50 (HCT-15) [µM] | GI50 (SK-MEL-2) | GI50 (SW-620) | GI50 (SR) | GI50 (Malme-3M) | GI50 (A498) | GI50 (ACHN) | GI50 (SK-MEL-28) | GI50 (M14) | GI50 (MCF7) | GI50 (SNB-19) | GI50 (HT-29)
Cn1c2ccc([N+](=O)[O-])cc2c(=O)c2c(O)cc(O)cc21 | 19.7 µM (inactive) | 43 µM (inactive) | 31.4 µM (inactive) | 60 µM (inactive) | > 100 µM (inactive) | 59 µM (inactive) | > 100 µM (inactive) | 60.3 | > 10 µM (inactive) | 68.2 µM (inactive) | 19.2 µM (inactive) | 18.6 µM (inactive) | > 100 µM (inactive) | 33.1 µM (inactive) | > 100 µM (inactive) | 60.4 µM (inactive) | 13.7 µM (inactive) | 18.1 µM (inactive) | 
COc1ccc(/C=C(\C(=C/c2ccc(OC)cc2)[N+](=O)[O-])[N+](=O)[O-])cc1 | 4.09 µM (inactive) | 3.18 µM (inactive) | 2.88 µM (inactive) | 4.07 µM (inactive) | 0.261 µM (active) | 4.53 µM (inactive) | 3.68 µM (inactive) | 2.55 | 11.6 µM (inactive) | 2.52 µM (inactive) | 2.03 µM (inactive) | 3.34 µM (inactive) | 30.3 µM (inactive) | 5.96 µM (inactive) | 2.31 µM (inactive) | 4.11 µM (inactive) | 6.31 µM (inactive) | 10.1 µM (inactive) | 3.39 µM (inactive)
Cc1cccc(NC(=O)CCl)c1 | 8.69 µM (inactive) | > 10 µM (inactive) | 7.67 µM (inactive) | 7.71 µM (inactive) | 3.56 µM (inactive) |  | > 10 µM (inactive) | > 10 | > 10 µM (inactive) | > 10 µM (inactive) | 9.93 µM (inactive) | 3.93 µM (inactive) | > 10 µM (inactive) | > 10 µM (inactive) | > 10 µM (inactive) | 8.77 µM (inactive) | > 10 µM (inactive) | > 10 µM (inactive) | 7.87 µM (inactive)
CCN1CN(c2ccccc2)C2(CCN(CC(CC3OCCO3)c3ccc(F)cc3)CC2)C1=O (configuration not stated) | 5.19 µM (inactive) | 3.18 µM (inactive) | 14.3 µM (inactive) | 4.07 µM (inactive) | 17.7 µM (inactive) | 26.2 µM (inactive) | 0.703 µM (active) | 16.3 | 20.1 µM (inactive) | 6.35 µM (inactive) | 33 µM (inactive) | 19.7 µM (inactive) | 3.63 µM (inactive) | 3.73 µM (inactive) | 19.9 µM (inactive) | 5.24 µM (inactive) | 2.26 µM (inactive) | 20.6 µM (inactive) | 1.34 µM (inactive)
CCOC(=O)C1=NN(c2ccc([N+](=O)[O-])cc2)[C@@]2(C)C[C@]3(c4ccccc4)N(c4ccc([N+](=O)[O-])cc4)N=C(C(=O)OCC)N3c3ccccc3N12 | > 100 µM (inactive) | > 100 µM (inactive) | > 100 µM (inactive) | > 100 µM (inactive) | > 100 µM (inactive) | > 100 µM (inactive) | > 100 µM (inactive) | > 100 | > 100 µM (inactive) | > 100 µM (inactive) | > 100 µM (inactive) | > 100 µM (inactive) | > 100 µM (inactive) | > 100 µM (inactive) | > 100 µM (inactive) | 53.2 µM (inactive) | > 100 µM (inactive) | > 100 µM (inactive) | > 100 µM (inactive)
COc1cc(C(c2ccccc2)N2C(=O)CC[C@H]2C(=O)O)cc(OC)c1OC (some centres not stated) | > 100 µM (inactive) | > 100 µM (inactive) | > 100 µM (inactive) | > 100 µM (inactive) | > 100 µM (inactive) | > 100 µM (inactive) | > 100 µM (inactive) | > 100 | > 100 µM (inactive) | > 100 µM (inactive) | > 100 µM (inactive) | > 100 µM (inactive) | > 100 µM (inactive) | > 100 µM (inactive) | > 100 µM (inactive) | > 100 µM (inactive) | > 100 µM (inactive) | > 100 µM (inactive) | > 100 µM (inactive)
